Data reported in patent US20160355530A1, “HEPATITIS C INHIBITORS AND USES THEREOF” (AbbVie Inc., priority 2010, published 2016).
Like-named read-outs stand apart in the source and are kept apart here.

Tests used:
[1] = biological target: T1, HCV NS5B polymerase 1a-H77 (Hepatitis C virus genotype 1a, UniProt P27958); assay: biochemical; set-up: species or system HCV genotype 1a; settings: enzyme, strain 1a H77; read-out: HCV Polymerase Strain 1a H77 IC50
T1 construct: six-histidine tag; made in house; host or cells: E. coli
Outline: (§1)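 Recombinant NS5B (residues 1–570, His-tagged, E. coli-expressed) copied 5 nM of a 2.1 kb HCV 1b negative-strand 3′-end RNA template with 20 μM CTP, 20 μM ATP and 0.284 μM [3H]UTP for 3 h at 30 °C. Spermine-precipitated RNA was filter-captured and counted, and IC50 was fitted by nonlinear regression.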

[2] = biological target: T2, HCV NS5B polymerase 1a-H77-C316Y (Hepatitis C virus genotype 1a, UniProt P27958, C2736Y); assay: biochemical; set-up: species or system HCV genotype 1a
T2 construct: six-histidine tag; made in house; host or cells: E. coli
Outline: as §1

[3] = system: HCV NS5B polymerase 1a-H77-C316Y; assay: biochemical; set-up: species or system HCV genotype 1a; settings: ratio of enzyme IC50s, 1a H77-C316Y / 1a H77
Outline: as §1

[4] = system: chimeric replicon with 2a-J6CF-derived NS5B; assay: microbe, parasite or virus in culture; assay type: cell-based, HCV genotype 2a; settings: Hepatitis C virus, read-out: 2a chimera 5% FBS EC50
[5] = system: HCV 1b-BB7 subgenomic replicon; assay: microbe, parasite or virus in culture; assay type: cell-based, HCV genotype 1b; settings: Hepatitis C virus, stable replicon
[6] = system: chimeric replicon with genotype 3a NS5B; assay: microbe, parasite or virus in culture; assay type: cell-based, HCV genotype 3a; settings: Hepatitis C virus, read-out: 3a chimera 5% FBS EC50
[7] = system: HCV 1a-H77 transient subgenomic replicon in Huh-7 derived cell line; assay: microbe, parasite or virus in culture; assay type: cell-based, HCV genotype 1a; settings: Hepatitis C virus, Huh-7; transient replicon, 5% FBS; read-out: Transient Replicon 1a H77 5% FBS EC50
Outline: (§2)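 Subgenomic replicon RNA (no Neo gene) electroporated into Huh-7-derived cells, plated at 5×10^3 cells/well; a 4 h plate gauged transfection efficiency. Cells exposed to 3-fold compound dilutions (0.5% DMSO) for 4 days at 37° C, then lysed for luciferase readout; EC50 calculated.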

[8] = system: HCV 1a-H77-C316Y transient subgenomic replicon in Huh-7 derived cell line; assay: microbe, parasite or virus in culture; assay type: cell-based, HCV genotype 1a; settings: for EC50: Hepatitis C virus, Huh-7, read-out: Transient Replicon 1a H77-C316Y 5% FBS EC50; for Transient Replicon Fold Resistance C316Y/1a: ratio of transient replicon EC50s, C316Y / 1a H77
Outline: as §2

[9] = biological target: T3, HCV NS5B polymerase 1b BK strain (Hepatitis C virus genotype 1b, UniProt P26663); assay: HCV NS5B polymerase enzymatic inhibition assay, strain 1b BK; assay type: biochemical; settings: enzyme, strain 1b BK; read-out: HCV Polymerase Strain 1b BK IC50
T3 construct: six-histidine tag; made in house; host or cells: E. coli
Outline: as §1

[10] = system: HCV 1a-H77 subgenomic replicon; assay: microbe, parasite or virus in culture; assay type: cell-based, HCV genotype 1a; settings: Hepatitis C virus, stable replicon
[11] = system: chimeric replicon with genotype 4a NS5B; assay: microbe, parasite or virus in culture; assay type: cell-based, HCV genotype 4a; settings: Hepatitis C virus, read-out: 4a chimera 5% FBS EC50
[12] = system: chimeric replicon with genotype 2b NS5B; assay: microbe, parasite or virus in culture; assay type: cell-based, HCV genotype 2b; settings: Hepatitis C virus, read-out: 2b chimera 5% FBS EC50
[13] = strain 1b BB7, 5% FBS + 40% human plasma, read-out: 1b BB7 5% FBS + 40% Human Plasma EC50
[14] = strain 1b BB7, 5% FBS, no human plasma, read-out: 1b BB7 5% FBS EC50
[15] = strain 1b BB7, 5% FBS, read-out: 1b BB7 5% FBS EC50
[16] = 5% FBS, absence of human plasma, read-out: Stable Replicon 1a H77 5% FBS EC50
[17] = strain 1a H77, 5% FBS + 40% human plasma, read-out: 1a H77 5% FBS + 40% Human Plasma EC50
[18] = strain 1a H77, 5% FBS, no human plasma, read-out: 1a H77 5% FBS EC50
[19] = strain 1a H77, 5% FBS, read-out: 1a H77 5% FBS EC50

T2 sequence (P27958 2421-2990 C2736Y): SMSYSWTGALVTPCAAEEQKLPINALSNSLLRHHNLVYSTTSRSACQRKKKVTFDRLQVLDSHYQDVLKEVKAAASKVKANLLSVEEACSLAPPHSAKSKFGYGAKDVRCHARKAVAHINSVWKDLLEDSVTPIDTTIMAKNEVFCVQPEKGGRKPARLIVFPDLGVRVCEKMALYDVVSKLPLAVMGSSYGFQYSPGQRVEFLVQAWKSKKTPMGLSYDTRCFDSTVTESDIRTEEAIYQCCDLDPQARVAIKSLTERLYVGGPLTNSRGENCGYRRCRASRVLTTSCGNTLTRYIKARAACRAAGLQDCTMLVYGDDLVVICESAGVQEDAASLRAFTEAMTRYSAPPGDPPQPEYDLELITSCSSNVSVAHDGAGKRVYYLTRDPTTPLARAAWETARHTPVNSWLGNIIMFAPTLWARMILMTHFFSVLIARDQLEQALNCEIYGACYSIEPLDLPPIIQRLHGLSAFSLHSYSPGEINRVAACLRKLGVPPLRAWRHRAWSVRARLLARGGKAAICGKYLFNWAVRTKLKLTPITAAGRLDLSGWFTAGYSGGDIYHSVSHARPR
T1 sequence (P27958 2421-2990): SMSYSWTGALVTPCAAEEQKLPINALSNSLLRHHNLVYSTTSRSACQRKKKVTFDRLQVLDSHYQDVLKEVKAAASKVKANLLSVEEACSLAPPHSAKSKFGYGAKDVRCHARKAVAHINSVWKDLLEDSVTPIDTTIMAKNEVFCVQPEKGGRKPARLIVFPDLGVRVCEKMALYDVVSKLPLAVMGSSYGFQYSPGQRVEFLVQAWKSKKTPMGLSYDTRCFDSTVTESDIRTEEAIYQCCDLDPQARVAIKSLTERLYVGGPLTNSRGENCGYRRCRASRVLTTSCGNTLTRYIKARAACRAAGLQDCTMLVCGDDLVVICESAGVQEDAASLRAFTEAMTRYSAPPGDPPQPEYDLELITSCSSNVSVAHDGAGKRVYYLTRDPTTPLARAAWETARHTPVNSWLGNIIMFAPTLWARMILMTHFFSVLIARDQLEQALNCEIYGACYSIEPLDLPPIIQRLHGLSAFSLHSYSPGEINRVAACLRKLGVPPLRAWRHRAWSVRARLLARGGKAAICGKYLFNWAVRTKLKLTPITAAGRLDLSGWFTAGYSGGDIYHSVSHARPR
T3 sequence (P26663 2420-2989): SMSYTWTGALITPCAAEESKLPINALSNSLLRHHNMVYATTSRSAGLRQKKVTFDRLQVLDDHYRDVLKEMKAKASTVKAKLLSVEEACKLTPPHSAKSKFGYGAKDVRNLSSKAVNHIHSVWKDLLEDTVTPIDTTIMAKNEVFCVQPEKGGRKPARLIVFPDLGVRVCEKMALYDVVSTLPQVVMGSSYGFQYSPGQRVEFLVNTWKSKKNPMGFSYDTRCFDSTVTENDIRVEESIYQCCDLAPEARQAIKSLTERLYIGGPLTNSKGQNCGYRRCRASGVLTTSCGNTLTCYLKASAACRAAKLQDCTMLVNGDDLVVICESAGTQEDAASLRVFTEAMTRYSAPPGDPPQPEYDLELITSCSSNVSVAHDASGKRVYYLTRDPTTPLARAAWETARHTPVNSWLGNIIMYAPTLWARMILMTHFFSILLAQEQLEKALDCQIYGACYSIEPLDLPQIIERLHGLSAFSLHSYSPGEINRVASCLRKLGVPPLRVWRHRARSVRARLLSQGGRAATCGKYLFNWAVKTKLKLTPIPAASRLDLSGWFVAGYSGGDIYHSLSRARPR

| Compound | IC50 [1] [nM] | IC50 [2] [nM] | C316Y/1a Fold Resistance [3] [fold] | EC50 [4] [nM] | EC50 [5, 13] [nM] | EC50 [5, 14] [nM] | EC50 [5, 15] [nM] | EC50 [6] [nM] | EC50 [7] [nM] | EC50 [8] [nM] | Transient Replicon Fold Resistance C316Y/1a [8] [fold] | IC50 [9] [nM] | EC50 [10, 16] [nM] | EC50 [10, 17] [nM] | EC50 [10, 18] [nM] | EC50 [10, 19] [nM] | EC50 [11] [nM] | EC50 [12] [nM] |
| --- | --- | --- | --- | --- | --- | --- | --- | --- | --- | --- | --- | --- | --- | --- | --- | --- | --- | --- |
| CC(C)(O)CCCN(c1cc2oc(-c3ccc(F)cc3)c(-c3ncc[nH]3)c2cc1C1CC1)S(C)(=O)=O [Example 99, N-[5-cyclopropyl-2-(4-fluorophenyl)-3-(1H-imidazol-2-yl)-1-benzofuran-6-yl]-N-(4-hydroxy-4-methylpentyl)methanesulfonamide] | 4.5 | 58 | 13 | 29.6 | 105 | 5.4 | 5.4 | 3.8 | 7.6 | 85.4 | 11 | 11 | 7.7 | 126 | 7.7 | 7.7 | 31.4 | 17.3 |
| Cc1cnc(-c2c(-c3ccc(F)cc3)oc3cc(N(CCC(C)C)S(C)(=O)=O)c(C4CC4)cc23)[nH]1 [Example 172, N-[5-cyclopropyl-2-(4-fluorophenyl)-3-(5-methyl-1H-imidazol-2-yl)-1-benzofuran-6-yl]-N-(3-methylbutyl)methanesulfonamide] | 13.3 | 87 | 7 | 1000 | 1130 | 111 | 111 | 233 | 40.4 | 103 | 3 | 179 | 67.4 | 1220 | 67.4 | 67.4 | > 1000 | 1000 |
| CS(=O)(=O)N(CCCCC(N)=O)c1cc2oc(-c3ccc(F)cc3)c(-c3ncc[nH]3)c2cc1C1CC1 [Example 91, 5-{[5-cyclopropyl-2-(4-fluorophenyl)-3-(1H-imidazol-2-yl)-1-benzofuran-6-yl](methylsulfonyl)amino}pentanamide] | 5.3 | 80 | 15 | 85.8 | 34 | 4.9 | 4.9 | 8 | 5.6 | 121 | 22 | 26 | 6.3 | 32 | 6.3 | 6.34 | 88.8 | 99.4 |
| CS(=O)(=O)CCCCN(c1cc2oc(-c3ccc(F)cc3)c(C3=NOCN3)c2cc1C1CC1)S(C)(=O)=O [Example 148, N-[5-cyclopropyl-3-(4,5-dihydro-1,2,4-oxadiazol-3-yl)-2-(4-fluorophenyl)-1-benzofuran-6-yl]-N-[4-(methylsulfonyl)butyl]methanesulfonamide] | 3.9 | 30 | 8 | 45.8 | 688 | 4 | 4 | 8.2 | 5.2 | 109 | 21 | 6 | 4.1 | 1290 | 4.1 | 4.1 | 39.7 | 32 |
| CS(=O)(=O)N(CCC1CCS(=O)(=O)C1)c1cc2oc(-c3ccc(F)cc3)c(C3=NOCN3)c2cc1C1CC1 (stereo not drawn) [Example 149, N-[5-cyclopropyl-3-(4,5-dihydro-1,2,4-oxadiazol-3-yl)-2-(4-fluorophenyl)-1-benzofuran-6-yl]-N-[2-(1,1-dioxidotetrahydrothiophen-3-yl)ethyl]methanesulfonamide] | 3.5 | 41 | 12 | 54 | 643 | 4 | 4 | 7 | 7.3 | 124 | 17 | 9 | 8.8 | 1020 | 8.8 | 8.8 | 21 | 34 |
| CS(=O)(=O)N(CCCCO)c1cc2oc(-c3ccc(F)cc3)c(C3=NOCN3)c2cc1C1CC1 [Example 16, N-[5-cyclopropyl-3-(4,5-dihydro-1,2,4-oxadiazol-3-yl)-2-(4-fluorophenyl)-1-benzofuran-6-yl]-N-(4-hydroxybutyl)methanesulfonamide] | 3 | 35 | 12 | 43.8 | 2190 | 2.5 | 2.5 | 5.5 | 2.6 | 43.7 | 17 | 18 | 3.8 | 411 | 3.8 | 3.8 | 61.3 | 60.4 |
| CC(C)CCN(c1cc2oc(-c3ccc(F)cc3)c(C3=NOCN3)c2cc1C1CC1)S(C)(=O)=O [Example 156, N-[5-cyclopropyl-3-(4,5-dihydro-1,2,4-oxadiazol-3-yl)-2-(4-fluorophenyl)-1-benzofuran-6-yl]-N-(3-methylbutyl)methanesulfonamide] | 6.3 | 34 | 5 | 718 | 2980 | 70.9 | 70.9 | 65.1 | 29.1 | 370 | 13 | 27 | 41.8 | 2300 | 41.8 | 41.8 | 623 | 893 |
| CS(=O)(=O)Nc1cc2oc(-c3ccc(F)cc3)c(C3=NOCN3)c2cc1C1CC1 [Example 173, N-[5-cyclopropyl-3-(4,5-dihydro-1,2,4-oxadiazol-3-yl)-2-(4-fluorophenyl)-1-benzofuran-6-yl]methanesulfonamide] | 7.1 | 1400 | 198 | 1000 | 5060 | 301 | 301 | 146 | 1000 | 10000 | 10 | 86 | 809 | 9720 | 809 | 809 | > 1000 | 1000 |
| CS(=O)(=O)N(CCCCCO)c1cc2oc(-c3ccc(F)cc3)c(C3=NOCN3)c2cc1C1CC1 [Example 147, N-[5-cyclopropyl-3-(4,5-dihydro-1,2,4-oxadiazol-3-yl)-2-(4-fluorophenyl)-1-benzofuran-6-yl]-N-(5-hydroxypentyl)methanesulfonamide] | 3.5 | 49 | 14 | 84.8 | 1830 | 9.8 | 9.8 | 10.3 | 9.7 | 77.8 | 8 | 9 | 8.9 | 1710 | 8.9 | 8.9 | 65.9 | 62 |
